pKi: −log10 of the molar value.

This assay has as its target Protein kinase C alpha type (Homo sapiens, UniProt P17252). Kind of assay: Displacement of [3H-20]-phorbol 12,13-dibutyrate(PDBU) from recombinant Protein kinase C alpha.
Consider `CCCCCCCCCCCCCC(=O)OC[C@]1(CO)CC[C@@H](CC(=O)OC)O1`, for which the pKi is 4.97.

Consider `CCCCCCCCCCCCCCOC(=O)C[C@H]1CC[C@@](CO)(COC(=O)CCCCC)O1`, for which the negative logarithm of the Ki (pKi) was 5.62.

`CCCCCCCC/C=C\CCCCCCCCOC(=O)/C=C1\COC(CO)(COC(C)=O)C1` (stereo not drawn): the negative logarithm of the Ki (pKi) is 6.07.

As to `CCCCCCCCCCCCCCOC(=O)C[C@@H]1CC[C@@](CO)(COC(=O)CCCCC)O1`, the negative logarithm of the Ki (pKi) was 4.89.

Take `CCCCCCCC/C=C\CCCCCCCCOC(=O)/C=C1/COC(CO)(COC(C)=O)C1` (stereo not drawn): the negative logarithm of the Ki (pKi) was 5.73.

Turning to `CCCCCCCCCCCCCC(=O)OCC1(CO)C/C(=C\C(=O)OC)CO1` (stereo not drawn), the pKi is 6.46.

`CCCCCCCCCCCCCC(=O)OCC1(CO)C/C(=C/C(=O)OC)CO1` (stereo not drawn): the pKi is 6.46.

`CCCCCCCCCCCCCC(=O)OC[C@]1(CO)CC[C@H](CC(=O)OC)O1`: the pKi was 5.57.

What is called pKi is −log10 of the Ki, conventionally taken in molar units.

The values above are taken from ChEMBL document CHEMBL1132430, “Protein kinase C ligands based on tetrahydrofuran templates containing a new set of phorbol ester pharmacophores” (J Med Chem, 1999).
